Experimental data from patent publication US6004790A, “Cyclomaltodextrin glucanotransferase variants” (priority 1995, dated 1999).

What was measured:
Assay in all cases: Kinetic studies of β-cyclodextrin forming activity on Paselli SA2 with and without β-cyclodextrin (product inhibition)
Assay type in all cases: biochemical
[1] = biological target: T1, Bacillus circulans Strain 251 CGTase (cyclomaltodextrin glucanotransferase), wild type, SEQ ID NO: 70 (Niallia circulans, UniProt P43379); settings: inhibition by β-cyclodextrin (0.1 or 0.2 mM), substrate 0-5% Paselli SA2, 50° C., Hill equation fit
T1 construct: a high extracellular production of wild-type enzyme and CGTase variants was obtained reproducibly; made in house; host or cells: Bacillus subtilis Strain DB104A (plasmid pDP66K)
T1 sequence (P43379 28-713): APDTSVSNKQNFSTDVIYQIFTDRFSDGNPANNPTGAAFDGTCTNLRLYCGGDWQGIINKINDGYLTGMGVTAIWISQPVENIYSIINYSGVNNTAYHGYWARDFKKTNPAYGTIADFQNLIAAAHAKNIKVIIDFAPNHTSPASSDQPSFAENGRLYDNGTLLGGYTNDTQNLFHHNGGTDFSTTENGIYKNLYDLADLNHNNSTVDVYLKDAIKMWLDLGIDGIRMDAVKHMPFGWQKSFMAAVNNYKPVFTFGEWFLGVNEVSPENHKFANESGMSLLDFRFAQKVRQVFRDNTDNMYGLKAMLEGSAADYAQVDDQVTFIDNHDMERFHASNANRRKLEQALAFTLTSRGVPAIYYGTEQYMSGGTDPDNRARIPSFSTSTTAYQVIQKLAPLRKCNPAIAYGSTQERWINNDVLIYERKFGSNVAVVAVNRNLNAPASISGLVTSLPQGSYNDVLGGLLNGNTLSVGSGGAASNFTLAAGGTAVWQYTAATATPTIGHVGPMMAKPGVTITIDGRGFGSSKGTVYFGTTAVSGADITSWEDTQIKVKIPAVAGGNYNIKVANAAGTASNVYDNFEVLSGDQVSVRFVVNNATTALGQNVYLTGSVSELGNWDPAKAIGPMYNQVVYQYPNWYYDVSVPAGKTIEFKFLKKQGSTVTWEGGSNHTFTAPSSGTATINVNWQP
Experimental: (§1) β-cyclodextrin Forming Activity: β-cyclodextrin forming activity was determined using 5% Paselli™ SA2 (i.e. partially hydrolysed potato starch with an average degree of polymerization of 50, available from AVEBE, Foxhol, The Netherlands) as substrate and after incubation for 3 minutes at 50° C. 0.1-0.1 units of activity were used. The β-cyclodextrin formed was determined based on its ability to form a stable colorless inclusion complex with phenolphthalein. One unit of activity is defined as the amount of enzyme able to form 1 μmol of β-cyclodextrin per minute.
(§2) Kinetic Studies: Kinetic studies on Paselli™ SA2 (AVEBE, Foxhol, The Netherlands) were performed by determination of the β-cyclodextrin forming activity of the enzyme on Paselli™ concentrations ranging from 0 to 5%, with and without addition of 0.1 or 0.2 mM of β-cyclodextrin. In these experiments approx. 0.6 μg/ml (0.15-0.18 units) of enzyme was used.
(§3) The data collected from these kinetic and binding studies were fitted using the Hill equation, yielding Ymax and K50 values for the binding studies, and Vmax and K50 values for the kinetic studies. Ki values were calculated as follows. [formula] Results

[2] = biological target: T2, Bacillus circulans Strain 251 CGTase variant W616A/W662A (Niallia circulans, UniProt P43379, W643A/W689A)
T2 construct: a high extracellular production of wild-type enzyme and CGTase variants was obtained reproducibly; made in house; host or cells: Bacillus subtilis Strain DB104A (plasmid pDP66K)
T2 sequence (P43379 28-713 W643A/W689A): as the sequence (P43379 28-713) above, with W616A, W662A counted along it
Experimental: as §1, §2, §3

[3] = biological target: T3, Bacillus circulans Strain 251 CGTase variant Y633A (Niallia circulans, UniProt P43379, Y660A)
T3 construct: a high extracellular production of wild-type enzyme and CGTase variants was obtained reproducibly; made in house; host or cells: Bacillus subtilis Strain DB104A (plasmid pDP66K)
T3 sequence (P43379 28-713 Y660A): as the sequence (P43379 28-713) above, with Y633A counted along it
Experimental: as §1, §2, §3

OC[C@H]1O[C@@H]2O[C@H]3[C@H](O)[C@@H](O)[C@@H](O[C@H]4[C@H](O)[C@@H](O)[C@@H](O[C@H]5[C@H](O)[C@@H](O)[C@@H](O[C@H]6[C@H](O)[C@@H](O)[C@@H](O[C@H]7[C@H](O)[C@@H](O)[C@@H](O[C@H]8[C@H](O)[C@@H](O)[C@@H](O[C@H]1[C@H](O)[C@H]2O)O[C@@H]8CO)O[C@@H]7CO)O[C@@H]6CO)O[C@@H]5CO)O[C@@H]4CO)O[C@@H]3CO [β-cyclodextrin]
Ki [1]: 380 µM
Ki [2]: 1110 µM
Ki [3]: 210 µM
